Measured values from US12319677B2, “Process for the production of 5-(4-((2S,5S)-5-(4-chlorobenzyl)-2-methyl-morpholino)piperidin-1-yl)-1H-1,2,4-triazol-3-amine” (Molecure S.A., priority 2019, dated 2025).
Values joined by “and” are separate entries in the source; they are usually repeats but may differ in a detail not shown here. Equal values may be shown once. Values belong to the compound of their own block, whether it stands above or below them.

What was measured:
Type in all cases: physicochemical
[1] = Particle size distribution (PSD), Malvern Mastersizer 2000 in Isopar G; conditions: three batches of the anhydrous form made by method D
Source text: The synthesis of the compound of formula 1 hydrated form I followed by the synthesis of the compound of the formula 1 anhydrous form has a significant advantage as compared to the synthesis of the compound of formula 1 described in WO 2017/037670. Under new conditions, the precipitation of the compound of the formula 1 hydrated form I unobviously allows to control the amount of residual hydrazine which is considered as a genotoxic impurity and must be controlled at ppm levels. The method outlined in the previous paragraph was used for the synthesis of three batches of the anhydrous form of the compound of formula 1. This material was carefully analyzed for purity, residual hydrazine level and particle size distribution.
PSD data were recoded with Malvern Mastersizer 2000 in Isopar G.

[2] = Stability of process intermediates (in methanol / as free base)
Source text: Under conditions described in the patent application WO 2017/037670 (sodium triacetoxy-borohydride, acetic acid and 1,2-dichloroethane), the compound of formula 11 reacts with N-Boc-4-piperidinone leading to a by-product of formula 12 which is observed in crude compound of formula 3. The impurity of formula 12 can be removed by the careful purification on silica gel but such an approach is unacceptable on a kilo-scale. […] Since the compound of formula 11 can be easily removed by crystallization after removal of the tert-butoxycarbonyl protection group, the present invention relates to a method for the synthesis of the compound of formula 5 with no impurity of formula 13. Moreover, the conditions described in this application unobviously allow one to use hydrochloride salt of the compound of formula 2 as the starting material which can facilitate the process. […]
Due to the fact that the compound of formula 6 is not stable in methanol, it is not possible to obtain the hydrated form II directly from the compound 6 as for hydrated form I of the compound of formula 1. […] The XPRD data for the dried material and data calculated from X-ray structure differ. […]

[3] = Solid-state stability of the hydrated forms upon drying; conditions: leads to amorphous form
Source text: Due to the fact that the compound of formula 6 is not stable in methanol, it is not possible to obtain the hydrated form II directly from the compound 6 as for hydrated form I of the compound of formula 1. Both hydrated forms I and II of the compound of formula 1 are unstable, leading to amorphous form upon drying. The XPRD data for the dried material and data calculated from X-ray structure differ. […] The amorphous form of the compound of formula 1 can be prepared in a more convenient way by melting the anhydrous form or hydrated form I or II of the compound of formula 1 followed by cooling off the material to ambient temperature. After grinding the glass-like solid, […] of the compound of formula 1 is an off-white solid.

Particle size distribution D10 [1]: 152 μm and 202 μm and 154 μm | Particle size distribution D50 [1]: 255 μm and 357 μm and 284 μm | Particle size distribution D90 [1]: 403 μm and 577 μm and 485 μm
Compound: C[C@H]1CN(C2CCN(c3nc(N)n[nH]3)CC2)[C@@H](Cc2ccc(Cl)cc2)CO1 [1, anhydrous form, 5-(4-((2S,5S)-5-(4-chlorobenzyl)-2-methylmorpholino)piperidin-1-yl)-1H-1,2,4-triazol-3-amine]

Stability in methanol ([2]; in methanol): not stable
Compound: CS/C(=N\C#N)N1CCC(N2C[C@H](C)OC[C@@H]2Cc2ccc(Cl)cc2)CC1 [compound 6, methyl (Z)-4-((2S,5S)-5-(4-chlorobenzyl)-2-methylmorpholino)-N-cyanopiperidine-1-carbimidothioate]

Stability of free base ([2]; free base (oil), must be kept as a salt to prevent decomposition): limited stability
Compound: C[C@H]1CN[C@@H](Cc2ccc(Cl)cc2)CO1 [compound 2, (2S,5S)-5-(4-chlorobenzyl)-2-methylmorpholine]

Stability of crystalline form [3]: unstable
Compound: C[C@H]1CN(C2CCN(c3nc(N)n[nH]3)CC2)[C@@H](Cc2ccc(Cl)cc2)CO1 [1, hydrated form I, 5-(4-((2S,5S)-5-(4-chlorobenzyl)-2-methylmorpholino)piperidin-1-yl)-1H-1,2,4-triazol-3-amine]
